The nature of series [1]: Cytotoxicity against African green monkey Vero cells assessed as cell growth inhibition after 48 hrs by MTT assay. Format: toxicity, cell-based. The note with it: African green monkey (Chlorocebus sabaeus). A general note: Formazan colour is commonly taken as a measure of viable cells.
Series [2] in a line: Cytotoxicity against human MCF7 cells assessed as cell growth inhibition after 48 hrs by MTT assay. Format: functional, cell-based. The note with it: MCF7, 48 h.
Series [3] concerns MCF7. Description: Induction of apoptosis in human MCF7 cells assessed as viable cells after 24 to 48 hrs by Annexin V/7-AAD staining based flow cytometry (reference value: 72.30 %). The format is functional. A general note: In flow cytometry, cells or beads pass a laser one at a time.
Series [4] is described as follows: Cell cycle arrest in human MCF7 cells assessed as accumulation at sub-G0 phase at 0.5 uM after 18 to 24 hrs by propidium iodide staining based flow cytometry (reference value: 1.4 %). Format: functional.
Series [5] can be described thus: Cell cycle arrest in human MCF7 cells assessed as accumulation at G2/M phase at 0.5 uM after 18 to 24 hrs by propidium iodide staining based flow cytometry (reference value: 18.8 %). The format is functional.
For series [6], the system named is MCF7. Description: Induction of apoptosis in human MCF7 cells assessed as late apoptotic cells after 24 to 48 hrs by Annexin V/7-AAD staining based flow cytometry (reference value: 16.05 %). Format: functional.
For series [7], the system named is MCF7. As to the kind of experiment: Induction of apoptosis in human MCF7 cells assessed as necrotic cells after 24 to 48 hrs by Annexin V/7-AAD staining based flow cytometry (reference value: 6.75 %). Format: functional.
The nature of series [8]: Cell cycle arrest in human MCF7 cells assessed as accumulation at S phase at 0.5 uM after 18 to 24 hrs by propidium iodide staining based flow cytometry (reference value: 8.5 %). Format: functional.
Series [9] in a line: Cell cycle arrest in human MCF7 cells assessed as accumulation at G0/G1 phase at 0.5 uM after 18 to 24 hrs by propidium iodide staining based flow cytometry (reference value: 67 %). The format is functional.
The test system of series [10] is MCF7. Description: Selectivity index, ratio of IC50 for African green monkey Vero cells to IC50 for human MCF7 cells. The format is functional.
Series [11] relates to MCF7. As to the kind of experiment: Induction of apoptosis in human MCF7 cells assessed as early apoptotic cells after 24 to 48 hrs by Annexin V/7-AAD staining based flow cytometry (reference value: 4.90 %). Format: functional.

Consider `O=C(N/N=C/c1c(-c2cc3ccccc3oc2=O)[nH]c2ccccc12)c1ccccc1F`, for which the IC50 at 48 h in [1] was > 200 µM. The IC50 in series [2] is > 200 µM.

As for `O=C(N/N=C/c1c(-c2cc3ccccc3oc2=O)[nH]c2ccccc12)c1ccc(Cl)cc1F`, in series [1], the IC50 at 48 h was > 200 µM. Besides, the IC50 in series [2] is > 200 µM.

For `O=C(N/N=C/c1c(-c2cc3ccccc3oc2=O)[nH]c2ccccc12)c1ccc(Cl)cc1`, in [1], the IC50 at 48 h is > 200 µM. Further, the IC50 in series [2] was > 200 µM.

Regarding `CC[C@]1(O)C[C@H]2CN(CCc3c([nH]c4ccccc34)[C@@](C(=O)OC)(c3cc4c(cc3OC)N(C=O)[C@H]3[C@@](O)(C(=O)OC)[C@H](OC(C)=O)[C@]5(CC)C=CCN6CC[C@]43[C@@H]65)C2)C1` [VINCRISTINE], the Activity in [3] amounted to 56.1%; in series [4] it was 5.1%; in series [5], 54.6%; in series [6] it was 17.7%; in [7] it was 23.45%; in [8], 7.8%. Also, the Activity in [9] worked out at 17.9%; in series [11], 2.75%. In addition, the IC50 at 48 h in [1] was determined as 0.9 µM. In series [10], the “Ratio IC50” value worked out at 3. In addition, the IC50 in series [2] stood at 0.3 µM.

For `O=C(N/N=C/c1c(-c2cc3ccccc3oc2=O)[nH]c2ccccc12)c1cccc(Br)c1`, in series [1], the concentration for half-maximal inhibition (IC50) at 48 h is > 200 µM. Further, the IC50 in [2] was > 200 µM.

In the case of `O=C(N/N=C/c1c(-c2cc3ccccc3oc2=O)[nH]c2ccccc12)c1ccccc1Cl`, the IC50 at 48 h in series [1] was > 200 µM. In series [2], the IC50 came out at 164 µM.

Turning to `O=C(N/N=C/c1c(-c2cc3ccccc3oc2=O)[nH]c2ccccc12)c1ccccc1`, the IC50 at 48 h in series [1] worked out at 121 µM. The IC50 in series [2] is > 200 µM.

What is called IC50 is the midpoint of a concentration-inhibition curve.
